pIC50: −log10 of the molar value.
What was measured:
[1] = molecular target: CDK6/Cyclin D3 (Homo sapiens (Human), UniProt Q00534); experiment: CDK6/Cyclin D3 ADP-Glo Kinase Assay; type: biochemical; conditions: 100 uM ATP, read-out: CDK6/ CyclinD3 IC50
Experimental: CDK6/Cyclin D3 ADP-Glo Kinase Assay
The purpose of the CDK6/Cyclin D3 assay is to evaluate the inhibition (% inhibition and IC50 values) in the presence of small molecule inhibitors by using a Luminescent based ADP-Glo assay. CDK6/Cyclin D3 catalyzes the production of ADP from ATP. ADP-Glo assay monitors ADP producing biochemical reactions. ADP-Glo is performed in 2 steps upon completion of kinase reaction: a combined termination of kinase reaction and depletion of remaining ATP in the first step, and conversion of generated ADP to ATP and the newly produced ATP to light output using luciferase/luciferin reaction in the second step. The luminescent signal generated is proportional to the ADP concentration produced and is correlated with the kinase activity. CDK6/Cyclin D3 was purchased from Carna. […] The assay was initiated with the addition of ATP-containing substrate solution, following a 30-minute pre-incubation of enzyme and inhibitor at room temperature in the reaction mixture. The reaction was stopped after 90 minutes at room temperature by the addition of 10 uL of ADP-GLO Reagent. After a 90-minute incubation, 20 uL of Kinase Detection Reagent was added. Samples were incubated for 40 minutes, after which plate well luminescence was measured on a Envision microplate reader. The IC50 determinations were made from a plot of the fractional velocity as a function of inhibitor concentration fit to the 4 parameters IC50 equation.

[2] = molecular target: CDK4/Cyclin D1 (Homo sapiens (Human), UniProt P11802); experiment: CDK4/Cyclin D1 CHEF Assay (AQT0258 peptide); type: biochemical; conditions: 200 uM ATP, read-out: CDK4/ CyclinD1 AQT IC50
Text: CDK4/Cyclin D1 CHEF Assay
The purpose of CDK4/Cyclin Dl assay is to evaluate the inhibition (% inhibition and IC50 values) of small molecule inhibitors by using a Chelation-Enhance Fluorescence (CHEF) assay. In a CHEF assay, phosphorylation of a peptide substrate results in proportional increase in fluorescence. CHEF kinase assay use peptide substrates containing a synthetic alpha-amino acid with a side chain bearing an 8-hydroxyquinoline derivative (sulfonamido-oxide, Sox). Upon phosphorylation of a nearby serine, threonine or tyrosine and in the presence of Mg(II), the spectral properties of the Sox residue are altered, emitting 485 nm wavelength light when excited with a 360 nm wavelength light source. CDK4/Cyclin D1 catalyzes the phosphoryl transfer to the SOX-labeled substrate peptide AQT0258 from Assayquant Technologies. Typical reaction solutions contained 2% DMSO (+/−inhibitor), 10 mM MgCl2, 1 mM DTT, 200 uM ATP (ATP Km=195.2 uM), 0.012% Brig-35, 10 uM AQT0258 peptide, 0.02% BSA, 1% Glycerol, 0.55 mM EGTA, 2.5 nM CDK4/Cyclin D1 in 54 mM HEPES buffer at pH 7.5. The reaction was initiated with the addition of substrate solution, following a 30-minute pre-incubation of enzyme and inhibitor at 22° C. in the reaction mix. Reactions were allowed to proceed for 3 hrs at 22° C., followed by fluorescence read of the reaction. The IC50 determinations were made from a plot of the fractional velocity as a function of inhibitor concentration fit to the 4 parameters IC50 equation.

[3] = molecular target: CDK1/Cyclin B1 (Homo sapiens (Human), UniProt P06493); experiment: CDK1/Cyclin B1 ADP-Glo Kinase Assay; type: biochemical; conditions: 80 uM ATP
Experimental: CDK1/Cyclin B1 ADP-Glo Kinase Assay
The purpose of CDK1/Cyclin B1 assay is to evaluate the inhibition (% inhibition and IC50 values) of small molecule inhibitors by using a Luminescent based ADP-Glo assay. CDK1/Cyclin B1 catalyzes the production of ADP from ATP. ADP-Glo assay monitors ADP producing biochemical reactions. ADP-Glo is performed in 2 steps upon completion of kinase reaction: a combined termination of kinase reaction and depletion of remaining ATP in the first step, and conversion of generated ADP to ATP and the newly produced ATP to light output using luciferase/luciferin reaction in the second step. The luminescent signal generated is proportional to the ADP concentration produced and is correlated with the kinase activity. CDK1/Cyclin B1 was purchased from Carna (Cat 04-102). Typical reaction solutions (10 uL final reaction volume) contained 2% DMSO (f inhibitor), 10 mM MgCl2, 1 mM EGTA, 0.05% BSA, 2 mM DTT, 80 uM ATP (ATP Km=78.6 uM), 0.01% Brig-35, 0.75 uM substrate, and 4.917 nM CDK1/Cyclin Bl enzyme complex in 50 mM HEPES buffer at pH 7.5. The assay was initiated with the addition of ATP-containing substrate solution, following a 30-minute pre-incubation of enzyme and inhibitor at room temperature in the reaction mixture. The reaction was stopped after 90 minutes at room temperature by the addition of 10 uL of ADP-GLO Reagent. After a 90 minute incubation, 20 uL of Kinase Detection Reagent was added. Samples were incubated for 40 minutes, after which plate well luminescence was measured on a Envision microplate reader. The IC50 determinations were made from a plot of the fractional velocity as a function of inhibitor concentration fit to the 4 parameters IC50 equation.

[4] = molecular target: CDK2/Cyclin E1 full length (Homo sapiens (Human), UniProt P24941); experiment: CDK2/Cyclin E1 Full Length ADP-Glo Kinase Assay; type: biochemical; conditions: 20 uM ATP, read-out: CDK2/ CyclinE1 IC50
Experimental: CDK2/Cyclin E1 Full Length ADP-Glo Kinase Assay
The purpose of CDK2/Cyclin E1 assay is to evaluate the inhibition (% inhibition and IC50 values) of small molecule inhibitors by using a Luminescent based ADP-Glo assay. CDK2/Cyclin E1 full length catalyzes the production of ADP from ATP. ADP-Glo assay monitors ADP producing biochemical reactions. ADP-Glo is performed in 2 steps upon completion of kinase reaction: a combined termination of kinase reaction and depletion of remaining ATP in the first step, and conversion of generated ADP to ATP and the newly produced ATP to light output using luciferase/luciferin reaction in the second step. The luminescent signal generated is proportional to the ADP concentration produced and is correlated with the kinase activity. CDK2/Cyclin E1 was purchased from Eurofins (Cat 14-475M). Typical reaction solutions (10 uL final reaction volume) contained 2% DMSO (f inhibitor), 10 mM MgCI2, 1 mM EGTA, 0.05% BSA, 2 mM DTT, 20 uM ATP (ATP Km=64.78 uM), 0.01% Brig-35, 0.75 uM substrate, and 0.328 nM wild-type full length CDK2/Cyclin E1 enzyme complex in 50 mM HEPES buffer at pH 7.5. The assay was initiated with the addition of ATP-containing substrate solution, following a 30-minute pre-incubation of enzyme and inhibitor at room temperature in the reaction mixture. The reaction was stopped after 90 minutes at room temperature by the addition of 10 uL of ADP-GLO Reagent. After a 90 minute incubation, 20 uL of Kinase Detection Reagent was added. Samples were incubated for 40 minutes, after which plate well luminescence was measured on a Envision microplate reader. The IC50 determinations were made from a plot of the fractional velocity as a function of inhibitor concentration fit to the 4 parameters IC50 equation.

[5] = tested on: OVCAR-3 cells; experiment: Cell Growth Inhibition, OVCAR-3 (CellTiterGlo, 6 days); type: cell-based; conditions: OVCAR-3, 6-day treatment, CellTiterGlo 2.0
Text: (§1) MCF-7 and OVCAR-3 cells were used to evaluate the anti-proliferation activity of the CDK inhibitors. MCF-7 (ATCC, HTB-22) cells are epithelial cells from a patient with ER+ metastatic adenocarcinoma. OVCAR-3 (ATCC, HTB-161) cells were derived from malignant ascites of a patient with ovarian cancer and are known to have CCNE1 amplification. Both cell lines were maintained in RPMI media supplemented with 10% fetal bovine serum. For cell growth inhibition assay, CDK inhibitors in DMSO solution were dispensed with either Echo 655 (Beckman Coulter) or Tecan D300e (HP) into 384-well plates (Corning #3765) and the 384-well plates were UV-sterilized prior to the assay. The inhibitors were typically tested in the 10-10,000 nM concentration range with half-log serial dilutions. MCF-7 or OVCAR-3 (500 cells/30 μL/well) were added to each well using Multidrop Combi (ThermoFisher) using standard cassettes. The assay plates with cells were cultured at 37° C., 5% CO2 for 6 days. At the end of the 6-day treatment, 30 μL of CellTiterGlo 2.0 (Promega) was added to each well and the luminescent signal was read using CLARIOstar plus (BMG). The percentage of cell growth inhibition (% CGI) was calculated using the following formula % CGI=100−100×luminescencesample/luminescencecontrol. The half maximal inhibitory concentration (IC50) was determined by nonlinear curve fitting (four parameters, variable slope).

[6] = tested on: MCF-7 cells; experiment: Cell Growth Inhibition, MCF-7 (CellTiterGlo, 6 days); type: cell-based; conditions: MCF-7, 6-day treatment, CellTiterGlo 2.0
Text: as §1

Sequence of CDK6/Cyclin D3 (Q00534 whole entry): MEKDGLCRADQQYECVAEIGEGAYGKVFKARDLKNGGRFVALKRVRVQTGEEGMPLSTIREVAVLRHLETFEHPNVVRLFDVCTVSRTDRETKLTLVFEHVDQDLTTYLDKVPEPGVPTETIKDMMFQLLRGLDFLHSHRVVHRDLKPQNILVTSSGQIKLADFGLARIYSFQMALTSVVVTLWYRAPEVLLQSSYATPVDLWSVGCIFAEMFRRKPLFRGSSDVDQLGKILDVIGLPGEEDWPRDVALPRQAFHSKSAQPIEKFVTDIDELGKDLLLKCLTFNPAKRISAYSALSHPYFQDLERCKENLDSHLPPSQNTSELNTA
Sequence of CDK6/Cyclin D3 (P30281 whole entry partner): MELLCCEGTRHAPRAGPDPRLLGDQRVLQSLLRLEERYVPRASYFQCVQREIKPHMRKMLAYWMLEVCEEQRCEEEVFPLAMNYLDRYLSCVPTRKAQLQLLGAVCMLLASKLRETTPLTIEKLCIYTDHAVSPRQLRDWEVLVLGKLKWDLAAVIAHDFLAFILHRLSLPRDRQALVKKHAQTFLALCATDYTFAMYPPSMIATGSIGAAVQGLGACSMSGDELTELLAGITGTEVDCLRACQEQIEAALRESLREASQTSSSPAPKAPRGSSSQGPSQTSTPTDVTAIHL
Sequence of CDK1/Cyclin B1 (P06493 whole entry): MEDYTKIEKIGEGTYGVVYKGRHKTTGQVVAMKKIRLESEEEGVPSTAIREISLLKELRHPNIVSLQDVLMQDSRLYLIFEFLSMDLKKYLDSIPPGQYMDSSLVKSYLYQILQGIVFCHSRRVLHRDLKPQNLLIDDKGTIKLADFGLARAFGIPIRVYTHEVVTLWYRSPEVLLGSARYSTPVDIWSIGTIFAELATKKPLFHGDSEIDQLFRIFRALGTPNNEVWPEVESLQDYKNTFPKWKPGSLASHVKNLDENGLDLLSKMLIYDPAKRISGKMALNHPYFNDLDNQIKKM
Sequence of CDK1/Cyclin B1 (P14635 whole entry partner): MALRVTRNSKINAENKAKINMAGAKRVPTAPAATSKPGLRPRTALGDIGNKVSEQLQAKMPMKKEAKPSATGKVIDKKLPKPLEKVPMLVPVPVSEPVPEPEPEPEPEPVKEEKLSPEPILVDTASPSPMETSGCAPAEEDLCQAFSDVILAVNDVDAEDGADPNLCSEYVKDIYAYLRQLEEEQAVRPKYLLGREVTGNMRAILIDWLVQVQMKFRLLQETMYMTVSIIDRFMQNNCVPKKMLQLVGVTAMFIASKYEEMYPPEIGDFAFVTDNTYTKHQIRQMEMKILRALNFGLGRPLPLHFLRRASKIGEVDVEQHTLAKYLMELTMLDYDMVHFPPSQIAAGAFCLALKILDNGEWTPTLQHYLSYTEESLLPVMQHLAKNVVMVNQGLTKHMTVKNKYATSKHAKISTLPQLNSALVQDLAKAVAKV
Sequence of CDK4/Cyclin D1 (P11802 whole entry): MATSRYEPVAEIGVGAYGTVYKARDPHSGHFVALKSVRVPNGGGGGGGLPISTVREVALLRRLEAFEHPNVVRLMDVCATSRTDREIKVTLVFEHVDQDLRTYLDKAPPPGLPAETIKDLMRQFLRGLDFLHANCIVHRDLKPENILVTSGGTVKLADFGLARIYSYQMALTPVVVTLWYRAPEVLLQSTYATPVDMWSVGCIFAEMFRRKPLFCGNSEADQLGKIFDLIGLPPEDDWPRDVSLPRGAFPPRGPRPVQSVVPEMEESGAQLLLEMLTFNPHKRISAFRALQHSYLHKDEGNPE
Sequence of CDK4/Cyclin D1 (P24385 whole entry partner): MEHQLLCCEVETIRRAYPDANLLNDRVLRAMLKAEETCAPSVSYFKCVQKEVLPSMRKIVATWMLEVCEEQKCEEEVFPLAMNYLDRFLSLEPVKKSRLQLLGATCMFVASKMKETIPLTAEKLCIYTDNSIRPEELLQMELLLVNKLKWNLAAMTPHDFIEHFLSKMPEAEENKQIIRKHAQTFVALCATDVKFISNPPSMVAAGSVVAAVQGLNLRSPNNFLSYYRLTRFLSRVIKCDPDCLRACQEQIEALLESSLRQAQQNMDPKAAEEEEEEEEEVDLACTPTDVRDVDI

SMILES | pIC50 [1] | pIC50 [2] | pIC50 [3] | pIC50 [4] | pIC50 ([5]; Homo sapiens, 144 h) | pIC50 ([6]; Homo sapiens, MCF7, 144 h) | pIC50 [5] | pIC50 [6]
CN1Cc2ccc(Nc3ncc4cc(C(F)F)cc(N5CC6(C5)CN(S(C)(=O)=O)C6)c4n3)cc2C1 [Example 58, 6-(difluoromethyl)-N-(2-methylisoindolin-5-yl)-8-(6-(methylsulfonyl)-2,6-diazaspiro[3.3]heptan-2-yl)quinazolin-2-amine] | > 6.70 | > 6.70 | 5.70 to 6.30 | > 6.70 | 5.70 to 6.30 | 5.70 to 6.30 |  | 
CN1CC(n2cc(Nc3ncc4cc(C(F)F)cc(N5CC6(CN(C)C6)C5)c4n3)cn2)C1 [Example 59, 6-(difluoromethyl)-8-(6-6-methyl-2,6-diazaspiro[3.3]heptan-2-yl)-N-(1-(1-methylazetidin-3-yl)-1H-pyrazol-4-yl)quinazolin-2-amine] | 5.70 to 6.30 | 6.30 to 6.70 | < 5.70 | 5.70 to 6.30 |  |  | < 5.70 | < 5.70
CN1CC2(CC(n3cc(Nc4ncc5cc(C(F)F)cc(N6CCC(C#N)(C7CC7)C6)c5n4)cn3)C2)C1 (stereo not drawn) [Example 60, 3-cyclopropyl-1-(6-(difluoromethyl)-2-((1-(2-methyl-2-azaspiro[3.3]heptan-6-yl)-1H-pyrazol-4-yl)amino)quinazolin-8-yl)pyrrolidine-3-carbonitrile] | > 6.70 | > 6.70 | 5.70 to 6.30 | 6.30 to 6.70 | 5.70 to 6.30 | 5.70 to 6.30 |  | 
CN1Cc2cc(F)c(Nc3ncc4cc(C(F)F)cc(N5CC6(CNC6)C5)c4n3)cc2C1 [Example 61, 6-(difluoromethyl)-N-(6-fluoro-2-methylisoindolin-5-yl)-8-(2,6-diazaspiro[3.3]heptan-2-yl)quinazolin-2-amine] | 5.70 to 6.30 | 6.30 to 6.70 | 5.70 to 6.30 | > 6.70 | < 5.70 | < 5.70 |  | 
CN1CC2(CCN(c3cc(C(F)F)cc4cnc(NC5CCN(S(C)(=O)=O)CC5)nc34)C2)C1 [Example 62, 6-(difluoromethyl)-8-(2-methyl-2,6-diazaspiro[3.4]octan-6-yl)-N-(1-(methylsulfonyl)piperidin-4-yl)quinazolin-2-amine] | > 6.70 | > 6.70 | 6.30 to 6.70 | > 6.70 | 5.70 to 6.30 | > 6.70 |  | 
CS(=O)(=O)N1CCC(Nc2ncc3cc(C(F)F)cc(N4CC5(CCNC5)C4)c3n2)CC1 [Example 63, 6-(difluoromethyl)-N-(1-(methylsulfonyl)piperidin-4-yl)-8-(2,6-diazaspiro[3.4]octan-2-yl)quinazolin-2-amine] | > 6.70 | > 6.70 | > 6.70 | > 6.70 | 5.70 to 6.30 | 5.70 to 6.30 |  | 
CN1CC2(CCN(c3cc(C(F)F)cc4cnc(NC5CCN(c6ncc(C7CC7)cn6)CC5)nc34)C2)C1 [Example 64, N-(1-(5-cyclopropylpyrimidin-2-yl)piperidin-4-yl)-6-(difluoromethyl)-8-(2-methyl-2,6-diazaspiro[3.4]octan-6-yl)quinazolin-2-amine] | < 5.70 | > 6.70 | < 5.70 | 5.70 to 6.30 | < 5.70 | 5.70 to 6.30 |  | 
CN1Cc2ccc(Nc3ncc4cc(C(F)F)cc(N5CC6(C5)CN(C5CC5)C6)c4n3)cc2C1 [Example 65, 8-(6-cyclopropyl-2,6-diazaspiro[3.3]heptan-2-yl)-6-(difluoromethyl)-N-(2-methylisoindolin-5-yl)quinazolin-2-amine] | > 6.70 | > 6.70 | < 5.70 | > 6.70 | 5.70 to 6.30 | 5.70 to 6.30 |  | 
CN1Cc2ccc(Nc3ncc4cc(C(F)F)cc(N5CCC6(CN(C)C6)C5)c4n3)cc2C1 [Example 66, 6-(difluoromethyl)-8-(2-methyl-2,6-diazaspiro[3.4]octan-6-yl)-N-(2-methylisoindolin-5-yl)quinazolin-2-amine] | > 6.70 | > 6.70 | 5.70 to 6.30 | > 6.70 | 5.70 to 6.30 | 5.70 to 6.30 |  | 
